The values below come from patent US8198317B2, “Methylenedioxy phenolic compounds and their use to treat disease” (The Ohio State University Research Foundation, priority 2008, dated 2012).

The test system of data set [1] is Human Umbilical Vein Endothelial Cells (HUVECs). Kind of data set: MTT cell toxicity assay. The data set is classed as cell-based. As to conditions: HUVEC, dose range of 10 nM to 100 μM. The method, then: Cell Culture: All experiments were performed with cultured Human Umbilical Vein Endothelial Cells (HUVECs—Gibco, Invitrogen) and grown to confluence at 37° C. in a 5% CO2 humidified incubator, on tissue culture flasks previously coated with 1% gelatin in supplemented culture medium (M199 with 10% heat inactivated fetal calf serum, 100 U/ml penicillin, 100 μg/ml streptomycin, 2 mM glutamine, 10 mM HEPES, pH 7.4, heparin 12 I.U./ml, 1% retinal derived growth factor, Sigma). Following trypsin treatment, the cells were detached from the flasks and final mono-layers were prepared by seeding HUVECs on gelatin-precoated culture plates and then incubated for 24-48 h to ensure confluence. Cells up to the fourth passage were used for all experiments. Recombinant human TNF-α was purchased from R&D Systems (Minneapolis, Minn.).
Cell Toxicity Assays: Cellular toxicity was assessed by MTT [3-(4,5-dimethylthiazol-2-yl)-2,5-diphenyltetrazolium bromide] assay, a commercially available assay for assessment of cellular viability. INV-75 was added to HUVECs for 24 hours, and toxicity assays were performed at the end of this period. The MTT assay relies on the cellular reduction of positively charged tetrazolium salts to their intensely colored formazan product by mitochondrial dehydrogenases. Formazan production is decreased in the presence of impaired mitochondrial redox function and enhanced free radical production and may, therefore, be used as an index of cell viability responses to experimental interventions.
In short, after removing microtiter plates from the incubator, fresh medium containing a fixed volume of reconstituted MTT [3-(4,5-dimethylthiazol-2-yl)-2,5-diphenyltetrazlium bromide; final concentration: 0.5 mg/ml] was added to the wells; the plates were kept at 37° C. in a 5% CO2 environment for 2 h, and then the MTT solubilization solution provided by the manufacturer was added. The formazan product formed by the conversion of positively charged tetrazolium salts to the reduced state has low aqueous solubility and is present as purple crystals. Dissolving the formazan with a solubilization buffer (provided in kit) permits the convenient quantification of its formation. Optical density at OD 570 nm is then measured for each well on an absorbance plate reader. The within- and between-assay variability was 3 and 5%, respectively. Various concentrations of INV-75 was tested in cell based assays using the MTT assay, as described above. The concentrations tested ranged from 1 mM to 10 nM and the cells were exposed for over 24 hours in duration (FIG. 2).
A general note: Tetrazolium dyes change colour on reduction, which living cells bring about.

The subject of data set [2] is Humans. Kind of data set: Treatment of established atherosclerosis in humans (Example 21). As to conditions: oral, in excess of 12 months. The data set is classed as in vivo, human. The text has this:
Individuals with established atherosclerosis with evidence of plaque in the coronary arteries, carotid arteries or peripheral arteries are known to be at risk for future cardiovascular events such as heart attacks and strokes. These individuals are on treatments such as statins and anti-hypertensive agents such as ACE inhibitors, diuretics or calcium channel blockers. They also will receive an acceptable dose of a composition comprising a compound of the present invention in an acceptable carrier orally and chronically for durations in excess of 12 months. In one study, 3,4-methylenedioxy phenyl acetate (INV 73); 3,4-methylenedioxy-6-nitrophenol (INV 74); 3,4-methylenedioxy-6-nitrophenyl acetate (INV 75); 3,4-Methylenedioxy 6-nitro phenyl lipoate (INV-7465) or 3,4-Methylenedioxy phenyl lipoate (INV-7065) are administered to these individuals. A repeat IVUS measurement is made at the end of the treatment period to assess the effect of the infusion of the composition on coronary atherosclerosis in the target vessel.

Data set [3] has as its system Humans. Kind of data set: Treatment of atherosclerosis in humans, primary prevention (Example 22). As to conditions: oral, in excess of 12 months. The data set is classed as in vivo, human. The text has this:
Individuals with risk factors for atherosclerosis such as family history, hypertension and high cholesterol are known to be at risk for future cardiovascular events such as heart attacks and strokes. These individuals are on primary prevention treatments such as hypolipidemic drug therapy such as statins aspirin and anti-hypertensive agents such as ACE inhibitors, diuretics or calcium channel blockers. They also will receive an acceptable dose of a composition comprising a compound of the present invention in an acceptable carrier orally chronically for durations in excess of 12 months. In one study, 3,4-methylenedioxy phenyl acetate (INV 73); 3,4-methylenedioxy-6-nitrophenol (INV 74); 3,4-methylenedioxy-6-nitrophenyl acetate (INV 75); 3,4-Methylenedioxy 6-nitro phenyl lipoate (INV-7465) or 3,4-Methylenedioxy phenyl lipoate (INV-7065) are administered to these individuals. A repeat IVUS measurement is made at the end of the treatment period to assess the effect of the infusion of the composition on coronary atherosclerosis in the target vessel.

Data set [4] concerns Humans. Kind of data set: Prevention or delay of onset of atherosclerosis in humans (Example 23). The format is in vivo, human. As to conditions: 2 mg/kg to 50 mg/kg iv or im, one to six months. On the procedure:
Individuals with documented risk factors for atherosclerosis and having high plasma cholesterol levels have a ultrasound analysis of the coronary (IVUS), carotid (IMT) or popliteal arteries to establish a baseline measurement. A portion of these individuals are […] administered a composition comprising a compound of the present invention in an acceptable carrier at a dose of 2 mg/kg to 50 mg/kg intravenously (iv) or intramuscular (im) I to 3 times per week over a period of approximately one to six months. The following compounds are administered to these individuals: 3,4-methylenedioxy phenyl acetate (INV 73); 3,4-methylenedioxy-6-nitrophenol (INV 74); 3,4-methylenedioxy-6-nitrophenyl acetate (INV 75); 3,4-Methylenedioxy 6-nitro phenyl lipoate (INV-7465) or 3,4-Methylenedioxy phenyl lipoate (INV-7065). The other individuals receive the carrier alone. A new ultrasound analysis at the end of the treatment period indicates higher levels of plaque in the vessels of individuals receiving the carrier.

The test system of data set [5] is Patients. Kind of data set: Treatment of patients with Type I and Type II diabetes (Example 24). The format is in vivo, human. As to conditions: diabetic patients, oral, 12 months. The text has this:
Individuals with Type I and Type II diabetes are at risk for future cardiovascular events such as heart attacks, strokes and kidney disease. These individuals are on prevention treatments such as hypolipidemic drug therapy such as statins and anti-hypertensive agents such as ACE inhibitors. They are already receiving glycemia lowering strategies such as Insulin, PPARγ agents, Metformin or sulfonylurea therapy. They also will receive an acceptable dose of a composition comprising a compound of the present invention in an acceptable carrier orally chronically for durations in excess of 12 months. In one study, 3,4-Methylenedioxy 6-nitro phenyl lipoate (INV-7465) or 3,4-Methylenedioxy phenyl lipoate (INV-7065) are administered to these individuals. The patients undergo the following measurements: HbA1C to assess glycemic control, urinary microalbuminura, blood pressure and lipid measurements. At the end of 12 months of treatment, there is lowering of HbA1C and urinary microalbuminuria. There is an improvement in VLDL cholesterol and a decrease in triglycerides with any of these treatments [(3,4-methylenedioxy phenyl acetate (INV 73); 3,4-methylenedioxy-6-nitrophenol (INV 74); 3,4-methylenedioxy-6-nitrophenyl acetate (INV 75); 3,4-Methylenedioxy 6-nitro phenyl lipoate (INV-7465) or 3,4-Methylenedioxy phenyl lipoate (INV-7065)].

Data set [6] concerns Patients. Kind of data set: Treatment of dyslipidemia in diabetic patients (Example 25). As to conditions: oral, 12 months. The format is in vivo, human. The text has this: Individuals with Type I and Type II diabetes are at risk for future cardiovascular events such as heart attacks, strokes and kidney disease. These individuals often have abnormalities in lipids such as elevations in triglycerides and VLDL cholesterol. They are on treatments such as hypolipidemic drug therapy such as statins and fibrates (Gemfibrozil or Fenofibrate) to lover cholesterol levels in conjunction with glycemia lowering strategies such as Insulin, PPAR γ agents, Metformin or sulfonylurea therapy. In addition to these treatments they will also receive an acceptable dose of a composition comprising a compound of the present invention in an acceptable carrier orally chronically for durations in excess of 12 months. In one study, (3,4-methylenedioxy phenyl acetate (INV 73); 3,4-methylenedioxy-6-nitrophenol (INV 74); 3,4-methylenedioxy-6-nitrophenyl acetate (INV 75); are administered to these individuals. The patients undergo lipid measurements at baseline and at the end of treatment for a 12 month duration. At the end of 12 months of treatment, there is lowering of VLDL cholesterol and a decrease in triglycerides.

For `CC(=O)Oc1ccc2c(c1)OCO2` [INV-73, 3,4-Methylenedioxyphenyl acetate], the “cell toxicity results compared with those of INV-75” value in data set [1] is recorded as “identical”. The “plaque in the atherosclerotic coronary artery (IVUS)” value with Humans [2] and in the data set on Humans [3] was “reduced” in each case. Besides, in the data set on Humans [4], the “preventing or reducing atherosclerosis (ultrasound, versus carrier alone)” value is reported as “effective”. The VLDL cholesterol entry is given as “improvement” with Patients [5] and “lowering” in the data set with Patients [6]. Also, the triglycerides result in the data set with Patients [5] and in the data set with Patients [6] was “decrease” in each case.
Take `O=[N+]([O-])c1cc2c(cc1O)OCO2` [INV-74, 3,4-Methylenedioxy-6-nitrophenol]: the “cell toxicity results compared with those of INV-75” value in data set [1] is given as “identical”. Besides, the “plaque in the atherosclerotic coronary artery (IVUS)” value with Humans [2] and with Humans [3] was “reduced” throughout. Moreover, the “preventing or reducing atherosclerosis (ultrasound, versus carrier alone)” value with Humans [4] is given as “effective”. In addition, the VLDL cholesterol entry is recorded as “improvement” in the data set with Patients [5] and “lowering” in the data set on Patients [6]. For the same compound, the triglycerides entry in the data set with Patients [5] and with Patients [6] was “decrease” each time.
